Reference: PubChem BioAssay (NCI)
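Cultured in 96-well plates, cells were exposed to test compound for 48 hours across five concentrations. TGI: concentration producing complete growth inhibition.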

Tests used:
Assay in all cases: DTP human tumour cell line panel, 48 h
MCF7 breast = test system: MCF7 breast
MDA-MB-231 breast = test system: MDA-MB-231 breast
NCI-H522 lung = test system: NCI-H522 lung
SNB-19 CNS = test system: SNB-19 CNS
SK-OV-3 ovarian = test system: SK-OV-3 ovarian
PC-3 prostate = test system: PC-3 prostate
SF-268 CNS = test system: SF-268 CNS
CAKI-1 renal = test system: CAKI-1 renal
786-0 renal = test system: 786-0 renal
MOLT-4 leukemia = test system: MOLT-4 leukemia
A498 renal = test system: A498 renal
MALME-3M melanoma = test system: MALME-3M melanoma
UO-31 renal = test system: UO-31 renal
HL-60(TB) leukemia = test system: HL-60(TB) leukemia
SNB-75 CNS = test system: SNB-75 CNS
NCI-H460 lung = test system: NCI-H460 lung
T-47D breast = test system: T-47D breast
OVCAR-8 ovarian = test system: OVCAR-8 ovarian
M14 melanoma = test system: M14 melanoma
SR leukemia = test system: SR leukemia
MDA-N = test system: MDA-N
U251 CNS = test system: U251 CNS
RPMI-8226 leukemia = test system: RPMI-8226 leukemia
SW-620 colon = test system: SW-620 colon
BT-549 breast = test system: BT-549 breast
A549 NSCLC = test system: A549 NSCLC
OVCAR-4 ovarian = test system: OVCAR-4 ovarian
OVCAR-5 ovarian = test system: OVCAR-5 ovarian
LOX IMVI melanoma = test system: LOX IMVI melanoma
HT29 colon = test system: HT29 colon
COLO 205 colon = test system: COLO 205 colon
HOP-92 NSCLC = test system: HOP-92 NSCLC
NCI-H23 lung = test system: NCI-H23 lung
K-562 leukemia = test system: K-562 leukemia
UACC-257 melanoma = test system: UACC-257 melanoma
KM12 colon = test system: KM12 colon
NCI/ADR-RES ovarian = test system: NCI/ADR-RES ovarian
ACHN renal = test system: ACHN renal
SF-295 CNS = test system: SF-295 CNS
OVCAR-3 ovarian = test system: OVCAR-3 ovarian
IGROV1 ovarian = test system: IGROV1 ovarian
UACC-62 melanoma = test system: UACC-62 melanoma
HOP-62 NSCLC = test system: HOP-62 NSCLC
HCT-15 colon = test system: HCT-15 colon
CCRF-CEM leukemia = test system: CCRF-CEM leukemia
SK-MEL-2 melanoma = test system: SK-MEL-2 melanoma
TK-10 renal = test system: TK-10 renal
RXF 393 renal = test system: RXF 393 renal
NCI-H226 lung = test system: NCI-H226 lung
HS 578T breast = test system: HS 578T breast
SF-539 CNS = test system: SF-539 CNS
SK-MEL-5 melanoma = test system: SK-MEL-5 melanoma
EKVX NSCLC = test system: EKVX NSCLC
MDA-MB-435 = test system: MDA-MB-435
HCT-116 colon = test system: HCT-116 colon
SN12C renal = test system: SN12C renal
HCC-2998 colon = test system: HCC-2998 colon
SK-MEL-28 melanoma = test system: SK-MEL-28 melanoma

## Cn1c(N(CCO)CCO)cnc1[N+](=O)[O-]
MCF7 breast
  TGI: > 100 µM
MDA-MB-231 breast
  TGI: > 100 µM
NCI-H522 lung
  TGI: > 100 µM
SNB-19 CNS
  TGI: > 100 µM
SK-OV-3 ovarian
  TGI: > 100 µM
PC-3 prostate
  TGI: > 100 µM
SF-268 CNS
  TGI: > 100 µM
CAKI-1 renal
  TGI: > 100 µM
786-0 renal
  TGI: > 100 µM
MOLT-4 leukemia
  TGI: > 100 µM
A498 renal
  TGI: > 100 µM
MALME-3M melanoma
  TGI: > 100 µM
UO-31 renal
  TGI: > 100 µM
HL-60(TB) leukemia
  TGI: > 100 µM
SNB-75 CNS
  TGI: > 100 µM
NCI-H460 lung
  TGI: > 100 µM
T-47D breast
  TGI: > 100 µM
OVCAR-8 ovarian
  TGI: > 100 µM
M14 melanoma
  TGI: > 100 µM
SR leukemia
  TGI: > 100 µM
MDA-N
  TGI: > 100 µM
U251 CNS
  TGI: > 100 µM
RPMI-8226 leukemia
  TGI: > 100 µM
SW-620 colon
  TGI: > 100 µM
BT-549 breast
  TGI: > 100 µM
A549 NSCLC
  TGI: > 100 µM
OVCAR-4 ovarian
  TGI: > 100 µM
OVCAR-5 ovarian
  TGI: > 100 µM
LOX IMVI melanoma
  TGI: > 100 µM
HT29 colon
  TGI: > 100 µM
COLO 205 colon
  TGI: > 100 µM
HOP-92 NSCLC
  TGI: > 100 µM
NCI-H23 lung
  TGI: > 100 µM
K-562 leukemia
  TGI: > 100 µM
UACC-257 melanoma
  TGI: > 100 µM
KM12 colon
  TGI: > 100 µM
NCI/ADR-RES ovarian
  TGI: > 100 µM
ACHN renal
  TGI: > 100 µM
SF-295 CNS
  TGI: > 100 µM
OVCAR-3 ovarian
  TGI: > 100 µM
IGROV1 ovarian
  TGI: > 100 µM
UACC-62 melanoma
  TGI: > 100 µM
HOP-62 NSCLC
  TGI: > 100 µM
HCT-15 colon
  TGI: > 100 µM
CCRF-CEM leukemia
  TGI: > 100 µM
SK-MEL-2 melanoma
  TGI: > 100 µM
TK-10 renal
  TGI: > 100 µM
RXF 393 renal
  TGI: > 100 µM
NCI-H226 lung
  TGI: > 100 µM
HS 578T breast
  TGI: > 100 µM
SF-539 CNS
  TGI: > 100 µM
SK-MEL-5 melanoma
  TGI: > 100 µM
EKVX NSCLC
  TGI: > 100 µM
MDA-MB-435
  TGI: > 100 µM
HCT-116 colon
  TGI: > 100 µM

## C/C(=N\Nc1nc2ccccc2[nH]1)c1ccncn1
MCF7 breast
  TGI: > 39.2 µM
MDA-MB-231 breast
  TGI: > 100 µM
SNB-19 CNS
  TGI: > 100 µM
SK-OV-3 ovarian
  TGI: 64.3 µM
PC-3 prostate
  TGI: > 100 µM
CAKI-1 renal
  TGI: > 49 µM
786-0 renal
  TGI: > 100 µM
MOLT-4 leukemia
  TGI: > 100 µM
A498 renal
  TGI: 6.38 µM
MALME-3M melanoma
  TGI: > 100 µM
SN12C renal
  TGI: 10.2 µM
HL-60(TB) leukemia
  TGI: 0.054 µM
SNB-75 CNS
  TGI: > 74.5 µM
NCI-H460 lung
  TGI: > 100 µM
T-47D breast
  TGI: > 100 µM
OVCAR-8 ovarian
  TGI: > 87.6 µM
SR leukemia
  TGI: > 100 µM
MDA-N
  TGI: > 100 µM
U251 CNS
  TGI: > 100 µM
SW-620 colon
  TGI: > 100 µM
BT-549 breast
  TGI: > 100 µM
A549 NSCLC
  TGI: > 100 µM
OVCAR-4 ovarian
  TGI: > 100 µM
OVCAR-5 ovarian
  TGI: > 100 µM
LOX IMVI melanoma
  TGI: > 42.5 µM
HT29 colon
  TGI: > 100 µM
COLO 205 colon
  TGI: > 47.4 µM
HOP-92 NSCLC
  TGI: 0.293 µM
NCI-H23 lung
  TGI: > 33.3 µM
K-562 leukemia
  TGI: > 100 µM
UACC-257 melanoma
  TGI: > 31.6 µM
KM12 colon
  TGI: 35.9 µM
NCI/ADR-RES ovarian
  TGI: 4.54 µM
ACHN renal
  TGI: 0.986 µM
SF-295 CNS
  TGI: > 44.6 µM
OVCAR-3 ovarian
  TGI: 13 µM
IGROV1 ovarian
  TGI: 43.8 µM
HOP-62 NSCLC
  TGI: 1.3 µM
HCT-15 colon
  TGI: > 100 µM
CCRF-CEM leukemia
  TGI: > 36.6 µM
SK-MEL-2 melanoma
  TGI: > 66.1 µM
TK-10 renal
  TGI: > 100 µM
HS 578T breast
  TGI: > 100 µM
SF-539 CNS
  TGI: > 100 µM
HCC-2998 colon
  TGI: > 79.5 µM
SK-MEL-5 melanoma
  TGI: 13.4 µM
SK-MEL-28 melanoma
  TGI: > 63 µM
EKVX NSCLC
  TGI: 43.2 µM
MDA-MB-435
  TGI: > 100 µM
HCT-116 colon
  TGI: 26.8 µM
